Data published in patent US8536187B2 (Gilead Sciences, Inc., priority 2008, dated 2013).

How the values were obtained:
[1] = tested on: HCV replicon in human hepatoma Huh-7 cell line; assay: Anti-HCV replicon assay, EC50 (luciferase luminescence); type: cell-based; details: Hepatitis C virus, Huh-7, 72 h
How it was run: (§1)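 Huh-7 cells carrying HCV replicon (6000/well) incubated with serially diluted compound, 0.5% DMSO final, 3 days at 37° C, 5% CO2. EC50 from luciferase luminescence after 30 min lysis/substrate at room temperature; CC50 from CellTiter-Glo luminescence after 10 min at room temperature.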

[2] = CC50 assay (CellTiter-Glo) in Huh-7 HCV replicon cells; type: cell-based; details: human
How it was run: as §1

| Compound | EC50 [1] [µM] | CC50 at 3 days ([2]; Table 1, 3 days incubation) [µM] | CC50 at 3 days ([2]; Table 2, 3 days incubation) [µM] |
| --- | --- | --- | --- |
| NS(=O)(=O)c1ccc(CNc2nc(NCC(F)(F)F)c3nc(-c4ccc(F)cc4)ccc3n2)cc1Cl [Example 5, 2-Chloro-4-{[6-(4-fluoro-phenyl)-4-(2,2,2-trifluoro-ethylamino)-pyrido[-3,2-d]pyrimidin-2-ylamino]-methyl}-benzenesulfonamide] | < 0.1 | > 25 |  |
| COc1ccc(-c2ccc3nc(NCc4ccc(S(N)(=O)=O)cc4)nc(NC4(C(F)(F)F)CC4)c3n2)cc1C(F)(F)F [Example 75, 4-((6-(4-methoxy-3-(trifluoromethyl)phenyl)-4-(1-(trifluoromethyl)cyclopropyl-amino)pyrido[3,2-d]pyrimidin-2-ylamino)methyl)benzene-sulfonamide] | 0.25 to 2 |  | > 10 |
| CS(=O)(=O)c1cc(-c2ccc3nc(NCc4ccc(S(N)(=O)=O)cc4)nc(NCC(F)(F)F)c3n2)ccc1F [Example 21, 4-{[6-(4-Fluoro-3-methanesulfonyl-phenyl)-4-(2,2,2-trifluoro-ethylamino)-pyrido[3,2-d]pyrimidin-2-ylamino]-methyl}-benzenesulfonamide] | < 0.1 | > 25 |  |
| C[C@@H](Nc1nc(OC2CCC2)c2nc(-c3cccc(S(C)(=O)=O)c3)ccc2n1)c1ccc(S(N)(=O)=O)cc1 [Example 200, 4-((R)-1-(4-cyclobutoxy-6-(3-(methylsulfonyl)phenyl)pyrido [3,2-d]pyrimidin-2-ylamino)ethyl)benzenesulfonamide] | 0.1 to 0.25 |  | > 10 |
| COCCNc1nc(NCC(F)(F)F)c2nc(-c3ccc(OC)c(S(C)(=O)=O)c3)ccc2n1 [Example 153, 6-(4-methoxy-3-(methylsulfonyl)phenyl)-N^2-(2-methoxyethyl)-N^4-(2,2,2-trifluoroethyl)pyrido[3,2-d] pyrimidine-2,4-diamine] | < 0.1 |  | > 10 |
| Fc1ccc(-c2ccc3nc(NCc4ccc(-n5cncn5)cc4)nc(NC4(C(F)(F)F)CC4)c3n2)cc1 [Example 81, N^2-(4-(1H-1,2,4-triazol-1-yl)benzyl)-6-(4-fluorophenyl)-N^4-(1-(trifluoromethyl)cyclopropyl)pyrido[3,2-d] pyrimidine-2,4-diamine] | 0.25 to 2 |  | 1 to 10 |
| CCC(=O)NS(=O)(=O)c1ccc(CNc2nc(NCC(F)(F)F)c3nc(-c4ccc(OC)c(S(C)(=O)=O)c4)ccc3n2)cc1 [Example 142, N-(4-((6-(4-methoxy-3-(methylsulfonyl)phenyl)-4-(2,2,2-trifluoroethylamino)pyrido[3,2-d]pyrimidin-2-ylamino)methyl)phenylsulfonyl) propionamide] | 0.25 to 2 |  | > 10 |
| CS(=O)(=O)c1cccc(-c2ccc3nc(NCc4ccc(-n5cncn5)cc4)nc(NCC(F)(F)F)c3n2)c1 [Example 163, N^2-(4-(1H-1,2,4-triazol-1-yl)benzyl)-6-(3-(methylsulfonyl)phenyl)-N^4-(2,2,2-trifluoroethyl) pyrido[3,2-d]pyrimidine-2,4-diamine] | < 0.1 |  | > 10 |
| CCS(=O)(=O)c1cc(-c2ccc3nc(NCc4ccc(S(N)(=O)=O)cc4)nc(NCC(F)(F)F)c3n2)ccc1OC [Example 149, 4-((6-(3-(ethylsulfonyl)-4-methoxyphenyl)-4-(2,2,2-trifluoroethylamino)pyrido[3,2-d]pyrimidin-2-ylamino)methyl) benzenesulfonamide] | < 0.1 |  | > 10 |
| NS(=O)(=O)c1ccc(CNc2nc(NCC(F)(F)F)c3nc(-c4ccc(F)cc4)ccc3n2)cc1C(F)(F)F [Example 9, 4-{[6-(4-Fluoro-phenyl)-4-(2,2,2-trifluoro-ethylamino)-pyrido[3,2-d]pyrimidin-2-ylamino]-methyl}-2-trifluoromethyl-benzenesulfonamide] | 0.25 to 2 | > 25 |  |
| CC#Cc1ccc2nc(N[C@H](C)c3ccc(S(N)(=O)=O)cc3)nc(O[C@@H]3C[C@@H]4C[C@@H]4C3)c2n1 [Example 313, 4-((R)-1-(4-((1S,3r,5R)-bicyclo[3.1.0]hexan-3-yloxy)-6-(prop-1-ynyl)pyrido[3,2-d]pyrimidin-2-ylamino)ethyl) benzenesulfonamide] | < 0.1 |  | > 10 |
| C#Cc1ccc2nc(NCc3ccc(S(N)(=O)=O)cc3)nc(OC3CC3)c2n1 [Example 300, 4-((4-cyclopropoxy-6-ethynylpyrido[3,2-d]pyrimidin-2-ylamino)methyl) benzenesulfonamide] | 0.25 to 2 |  | 1 to 10 |
| COc1ccc(-c2ccc3nc(N[C@H](C)c4ccc(-n5cncn5)cc4)nc(NC4(C(F)(F)F)CC4)c3n2)cc1S(C)(=O)=O [Example 94, N^2-((R)-1-(4-(1H-1,2,4-triazol-1-yl)phenyl)ethyl)-6-(4-methoxy-3-(methylsulfonyl)phenyl)-N^4-(1-(trifluoromethyl)cyclopropyl) pyrido[3,2-d]pyrimidine-2,4-diamine] | < 0.1 |  | 1 to 10 |
| NS(=O)(=O)c1ccc(CNc2nc(NC3(C(F)(F)F)CC3)c3nc(-c4ccc(F)cc4)ccc3n2)c(Cl)c1 [Example 43, 3-chloro-4-((6-(4-fluorophenyl)-4-(1-(trifluoromethyl)cyclopropyl-amino)pyrido[3,2-d]pyrimidin-2-ylamino)methyl)benzene-sulfonamide] | 0.25 to 2 |  | > 10 |
| COc1ccc(CNc2nc(NCC(F)(F)F)c3nc(-c4ccc(F)cc4)ccc3n2)cc1S(N)(=O)=O [Example 6] | 0.1 to 0.25 | > 25 |  |
| COc1ccc(-c2ccc3nc(NCc4cc(C(F)(F)F)cc(S(N)(=O)=O)c4)nc(NCC(F)(F)F)c3n2)cc1S(C)(=O)=O [Example 141, 3-((6-(4-methoxy-3-(methylsulfonyl)phenyl)-4-(2,2,2-trifluoroethylamino)pyrido[3,2-d]pyrimidin-2-ylamino)methyl)-5-(trifluoromethyl)benzene-sulfonamide] | < 0.1 |  | > 10 |
| NC(=O)c1ccc(CNc2nc(NC3(C(N)=O)CC3)c3nc(-c4ccc(F)cc4)ccc3n2)cn1 [Example 133, 5-((4-(1-carbamoylcyclo-propylamino)-6-(4-fluorophenyl)pyrido[3,2-d]pyrimidin-2-ylamino)methyl)picolinamide] | 0.1 to 0.25 |  | > 10 |
| COCC#Cc1ccc2nc(N[C@H](C)c3ccc(S(N)(=O)=O)cc3)nc(NCC(F)(F)F)c2n1 [Example 277, (R)-4-(1-(6-(3-methoxyprop-1-ynyl)-4-(2,2,2-trifluoroethyl-amino)pyrido[3,2-d]pyrimidin-2-ylamino)ethyl)benzene-sulfonamide] | < 0.1 |  | > 10 |
| C[C@@H](Nc1nc(NC2(C(F)(F)F)CC2)c2nc(-c3ccc(F)cc3)ccc2n1)c1ccc(S(N)(=O)=O)c(C(F)(F)F)c1 [Example 119, (R)-4-(1-(6-(4-fluorophenyl)-4-(1-(trifluoromethyl)cyclo-propylamino)pyrido[3,2-d]pyrimidin-2-ylamino)ethyl)-2-(trifluoromethyl)benzene-sulfonamide] | 0.25 to 2 |  | > 10 |
| [2H]C([2H])([2H])C([2H])([2H])Oc1ccc(-c2ccc3nc(N[C@H](C)c4ccc(-n5cncn5)cc4)nc(NCC(F)(F)F)c3n2)cn1 [Example 255, N^2-((R)-1-(4-(1H-1,2,4-triazol-1-yl)phenyl)ethyl)-6-(6-pentadeuteroethoxypyridin-3-yl)-N^4-(2,2,2-trifluoroethyl) pyrido[3,2-d]pyrimidine-2,4-diamine] | < 0.1 |  | 1 to 10 |
